Source: PubChem BioAssay (NCI)
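A five-concentration, 48-hour dose response in 96-well plates underlies each endpoint, interpolated linearly between surrounding concentrations. TGI: total growth inhibition.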

What was measured:
Experiment in all cases: DTP human tumour cell line panel, 48 h
[1] = tested on: K-562 leukemia
[2] = tested on: MDA-N
[3] = tested on: IGROV1 ovarian
[4] = tested on: MDA-MB-231 breast
[5] = tested on: HCT-15 colon
[6] = tested on: NCI-H226 lung
[7] = tested on: NCI/ADR-RES ovarian
[8] = tested on: T-47D breast
[9] = tested on: HS 578T breast
[10] = tested on: SN12C renal
[11] = tested on: SNB-75 CNS
[12] = tested on: TK-10 renal
[13] = tested on: ACHN renal
[14] = tested on: SF-268 CNS
[15] = tested on: COLO 205 colon
[16] = tested on: NCI-H460 lung
[17] = tested on: BT-549 breast
[18] = tested on: CAKI-1 renal
[19] = tested on: SR leukemia

Row | SMILES | TGI [1] [µM] | TGI [2] [µM] | TGI [3] [µM] | TGI [4] [µM] | TGI [5] [µM] | TGI [6] [µM] | TGI [7] [µM] | TGI [8] [µM] | TGI [9] [µM] | TGI [10] [µM] | TGI [11] [µM] | TGI [12] [µM] | TGI [13] [µM] | TGI [14] [µM] | TGI [15] [µM] | TGI [16] [µM] | TGI [17] [µM] | TGI [18] [µM] | TGI [19] [µM]
1 | COc1ccc2c(c1)N=C1CSC(c3cc([N+](=O)[O-])ccc3Cl)N1C2 (centres undefined) | > 100 | > 100 | > 100 | 50 | 96.4 | > 100 | 74.1 | > 100 | > 100 | 89.6 | 47.5 | 55.4 | 54.1 | > 100 | 79.6 | 45.4 | 80.7 | 66.8 | 70.1
2 | Oc1c(C2=N[C@H]3CCCC[C@@H]3N2)ccc2ccccc12 | > 100 | > 100 | > 100 | > 100 | > 100 | > 100 | > 93.9 | > 100 | > 100 | > 100 | > 100 | > 100 | > 100 | > 100 | > 100 | > 100 | > 100 | > 100 | > 100
3 | COc1ccccc1Cn1nc(OC)c2cc([N+](=O)[O-])ccc21 | > 100 | > 100 | > 100 | > 67.7 | > 100 | > 100 | > 100 | > 100 | > 84.7 | > 100 | 18.7 | 60.8 | > 100 | 36.9 | > 100 | > 100 | 46.2 | > 53.6 | > 100
4 | COC(=O)C1(Cc2ccccc2)Cc2ccc3c(c2C1=O)CCC3 (centres undefined) | > 100 | > 86.4 | > 100 | > 100 | > 100 | > 100 | > 100 | > 100 | > 84.3 | > 100 | > 100 | > 84 | > 100 | > 100 | > 62.5 | > 100 | > 87.7 | > 100 | > 73.4
5 | CN(C)c1nc(-c2ccccc2)c(C(=O)c2c[nH]c3ccccc23)s1 | > 100 | 20.2 | > 44.7 | > 100 | > 100 | > 100 | > 100 | > 100 | > 28.3 | > 100 | 7.71 | > 76.3 | > 100 | > 100 | > 100 | > 79.2 | > 100 | > 100 | > 100
6 | CC(C)NC(=O)OCCN=C1c2ccccc2CCc2ccccc21 | 59 | 39.8 | > 100 | 66.7 | 77.8 | 60.5 | 99.5 | 66.1 | 78.3 | 46.2 | > 100 | 92.7 | 68.4 | 80.7 | 35.7 | 76.9 | 28.5 | > 100 | 53
